{"source": "patent US9790135B2", "about": "“Use of acylated carbonic esters of glycerol in agriculture” (AGRONUTRITION, priority 2013, dated 2017)", "key": {"[1]": {"assay": "Stability of the concentrated colloidal suspension towards sedimentation", "type": "physicochemical", "details": "concentrated colloidal suspension of MnCO3 (and MnSO4) in glycerol/water with the adjuvant", "method": "The concentrated colloidal suspension is stable towards sedimentation over time—in particular over a period of 12 months—and is capable of being stored at a temperature of from −50° C. to +50° C. without any alteration of its rheological properties or of the stimulating and/or nutritive properties of the nutritive composition obtained by dilution of the concentrated colloidal suspension. Such a concentrated colloidal suspension can therefore be proposed for sale, marketed and distributed while retaining the stimulating and/or nutritive properties of the nutritive composition.\nCyclic glycerol carbonate (CG) of formula (VI), glycerol, water and manganese carbonate (MnCO3) in the form of a solid in the divided state, the solid particles of which have a mean size of approximately 2 μm, are mixed."}, "soya": {"system": "soya", "assay": "Foliar manganese content of soya after foliar application of nutritive MnCO3 compositions", "details": "soya crop, 500 g manganese carbonate per hectare"}, "[2]": {"system": "winter common wheat (variety Quality, ARVALIS)", "assay": "Manganese content retained in leaves of treated winter common wheat", "type": "in vivo", "method": "A powder of manganese carbonate (MnCO3, CAS 598-62-9) having a mean particle size of substantially approximately 2 μm is prepared by grinding. A concentrated colloidal suspension comprising 58.7% of this powder in a liquid composition comprising 1.5% glycerol carbonate acetate (ECG-C2, as described in Example 3 and in Table 1), […], 7.5% water and 1% jojoba oil, the indicated percentages being percentages by mass. The concentrated colloidal suspension is diluted in water to form a treatment composition (Mn385) according to the invention which is suitable for applying, by spraying on the cultivated surface area, a quantity of manganese carbonate of 385 g per hectare of cultivated surface area.\nThere are also prepared: • a concentrated colloidal suspension as described in Example 4, and this concentrated colloidal suspension is diluted in water to form a nutritive composition (Mn457) according to the invention which is suitable for applying, by spraying, a quantity of manganese carbonate of 457 g per hectare of surface area; and • a concentrated colloidal suspension as described in Example 7, and this concentrated colloidal suspension is diluted in water to form a nutritive composition (Mn509) according to the invention which is suitable for applying, by spraying, a quantity of manganese carbonate of 509 g per hectare of cultivated surface area.\nThe nutritive compositions Mn385, Mn457 and Mn509 according to the invention are applied by spraying to plots of 4 parcels having a surface area of 16 m^2 cultivated with winter common wheat (variety “Quality”, ARVALIS).\nThere are also prepared in parallel: • on a plot of 4 16 m^2 parcels, a crop of winter common wheat treated by spraying with water, as negative control; and • on a plot of 4 16 m^2 parcels, a crop of winter common wheat treated with MnCO3 on its own (without adjuvant according to the invention) at a rate of 500 g per hectare, as control treatment; and • on a plot of 4 16 m^2 parcels, a crop of winter common wheat treated, by way of comparison, with a formulation of MANTRAC 500 at a rate of 500 g of MnCO3 per hectare.\nThe manganese content retained in the leaves of treated common wheat is measured one day (D+1), seven days (D+7), 14 days (D+14) and 21 days (D+21) after application. To that end, the leaves are removed and washed three times with water to remove the manganese carbonate that has not been absorbed by the plant, and the manganese absorbed into the leaves is then assayed. The results are given in Table 2 below and are expressed in ppm (μg of manganese per gram of leaf).\nThe kinetics of daily MnCO3 assimilation in the leaves are measured."}}}
{"molecule": "CCCCCCCC/C=C\\CCCCCCCC(=O)OCC1COC(=O)O1", "note": "(stereo not drawn) [ECG-C18:1, cyclic α/α′-oleylated glycerol carbonic ester]", "values": [{"measurement": "stability of the concentrated colloidal suspension (settling of particles)", "setting": "[1]", "value": "stable over time"}, {"measurement": "foliar manganese content reached (maximum) up to four days after application", "setting": "soya", "value": "greater than 250 ppm"}]}
{"molecule": "manganese carbonate [MnCO3 on its own]", "values": [{"measurement": "results relative to the negative control (water) (in words)", "setting": "[2]; 500 g per hectare, without adjuvant", "value": "do not differ from the results obtained with the negative control"}, {"measurement": "manganese content retained in the leaves, D + 14", "setting": "[2]; 14 days after application", "value": "112.50 +/− 45.35 ppm (μg of manganese per gram of leaf)"}, {"measurement": "manganese content retained in the leaves, D + 21", "setting": "[2]; 21 days after application", "value": "95.43 +/− 5.95 ppm (μg of manganese per gram of leaf)"}, {"measurement": "manganese content retained in the leaves, D + 1", "setting": "[2]; one day after application, leaves washed three times with water", "value": "84.83 +/− 28.01 ppm (μg of manganese per gram of leaf)"}, {"measurement": "manganese content retained in the leaves, D + 7", "setting": "[2]; seven days after application", "value": "74.83 +/− 19.14 ppm (μg of manganese per gram of leaf)"}]}
{"molecule": "C=CCCCCCCCCC(=O)OCC1COC(=O)O1", "note": "(stereo not drawn) [ECG-C11:1, cyclic α/α′-undecylenoylated glycerol carbonic ester]", "values": [{"measurement": "stability of the concentrated colloidal suspension (settling of particles)", "setting": "[1]", "value": "stable over time"}]}
{"molecule": "CCCCCCCCC(=O)OCC1COC(=O)O1", "note": "(stereo not drawn) [ECG-C9, cyclic α/α′-nonanoylated glycerol carbonic ester]", "values": [{"measurement": "stability of the concentrated colloidal suspension (settling of particles)", "setting": "[1]", "value": "stable over time"}]}
{"molecule": "CCCCCCC(=O)OCC1COC(=O)O1", "note": "(stereo not drawn) [ECG-C7, cyclic α/α′-heptanoylated glycerol carbonic ester]", "values": [{"measurement": "stability of the concentrated colloidal suspension (settling of particles)", "setting": "[1]", "value": "stable over time"}]}
{"molecule": "CC(=O)OCC1COC(=O)O1", "note": "(stereo not drawn) [ECG-C2, cyclic α/α′-acetylated glycerol carbonic ester]", "values": [{"measurement": "stability of the concentrated colloidal suspension (settling of particles)", "setting": "[1]", "value": "stable over time"}]}
